The results in this text go back to the OPERA property sets (Mansouri et al. 2018).

Each structure is given as a SMILES string. In brackets after ≈: the same amount, converted by molar mass.

For the data set the following is noted: for solubility: 22 °C.

The logP is a log measure of how a compound divides between an organic and an aqueous phase. High values mean a more lipophilic compound, low ones a more hydrophilic compound. In turn, `CCCC(=O)OCOC(=O)c1ccccc1OC(C)=O` displayed a logP of 2.5.
In general, solubility refers to the dissolved amount per volume that the medium holds. Read a low solubility as little dissolved substance. `CCCCNC(=O)COC(=O)c1ccccc1` returned a logP of 2.36 and a solubility of 1740 µM (≈ 410 µg/mL).
For `CC(=O)N(C)C(=O)COC(=O)c1ccccc1`, in that order: 1.58 and 1360 µM (≈ 320 µg/mL).
`O=C(OCC(=O)N1CCCCC1)c1ccccc1`: the solubility is 3150 µM (≈ 780 µg/mL).
With `O=C(OCC(=O)N1CCOCC1)c1ccccc1`, the solubility was 16900 µM (≈ 4200 µg/mL).
`CCCCCCNC(=O)COC(=O)c1ccccc1` had a logP of 2.81 and a solubility of 125 µM (≈ 33 µg/mL).
`O=C(COC(=O)c1ccccc1)NC(CO)(CO)CO` had a logP of 0.25.
Molecule `C=CCN(CC=C)C(=O)COC(=O)c1ccccc1` had a solubility of 2740 µM (≈ 710 µg/mL).
Molecule `CCCOC(=O)n1c(-c2cscn2)nc2ccccc21` came in with a logP of 2.98.
The same measure, in the same setting: the same measure for `CCN(CC)C(=O)C(C)OC(=O)c1ccccc1` (stereo not drawn): 2.3.
The same measure, in the same setting: the same measure for `CCCCCCN(C)C(=O)COC(=O)c1ccccc1`: 2.99.
As to `CC(C)(C)NC(=O)COC(=O)c1ccccc1`, the lipophilicity (logP) was found to be 2.26 and the solubility was 1360 µM (≈ 320 µg/mL).
The corresponding values for `NC(=O)COC(=O)c1ccccc1` are 0.69 and 22900 µM (≈ 4100 µg/mL).
As to `CCCCCCN(CCCCCC)C(=O)COC(=O)c1ccccc1`, the logP was 6.53.
Still for that read-out and setting: next, `COCCN(CCOC)C(=O)COC(=O)c1ccccc1`: 1.28.
Same read-out and setting: the same measure for `O=C(OCC(=O)N1CCC1C(=O)O)c1ccccc1` (stereo not drawn): 0.79; for `CC(=O)Oc1ccccc1C(=O)OCCN(C)C(C)=O`: 1.46.
As for `O=C(OCC(=O)N1CCC(O)CC1)c1ccccc1`, the logP is 0.63 and the solubility worked out at 44800 µM (≈ 11800 µg/mL).
The corresponding values for `CC(C)NC(=O)COC(=O)c1ccccc1` are 1.73 and 1850 µM (≈ 410 µg/mL).
`CCCCN(CCCC)C(=O)COC(=O)c1ccccc1` came in with a solubility of 275 µM (≈ 80 µg/mL).
In the case of `CN(C)C(=O)COC(=O)c1ccccc1`, the solubility came out at 42500 µM (≈ 8800 µg/mL).
With `CCN(CC)C(=O)COC(=O)c1ccccc1`, the solubility is 8500 µM (≈ 2000 µg/mL).
`NC(=O)C1CCCN1C(=O)COC(=O)c1ccccc1` (stereo not drawn): the logP worked out at 0.2.
For `CNC(=O)COC(=O)c1ccccc1`, the logP was found to be 0.99 and the solubility was found to be 19200 µM (≈ 3700 µg/mL).
Turning to `C[C@H](NC(=O)COC(=O)c1ccccc1)C(N)=O`, the solubility came out at 1920 µM (≈ 480 µg/mL).
Regarding `CC(=O)N(C)CCOC(=O)c1ccccc1`, the lipophilicity (logP) came to 1.24.
Take `CCCNC(=O)COC(=O)c1ccccc1`: the logP was determined as 1.88 and the solubility is 2890 µM (≈ 640 µg/mL).
Molecule `CC(=O)NC(=O)COC(=O)c1ccccc1` came in with a log partition coefficient (logP) of 1.24 and a solubility of 3980 µM (≈ 880 µg/mL).
In turn, `CC(O)CN(CC(C)O)C(=O)COC(=O)c1ccccc1` (stereo not drawn) had a logP of 0.66.
`O=C(OCC(=O)N1CCCCCC1)c1ccccc1` returned a solubility of 2870 µM (≈ 750 µg/mL).
`CC(NC(=O)COC(=O)c1ccccc1)C(N)=O` (stereo not drawn) came in with a logP of 0.42.
In the case of `CCNC(=O)COC(=O)c1ccccc1`, the logP is 1.28 and the solubility came to 5790 µM (≈ 1200 µg/mL).
